# Patent US5618831A, “Composition and method for treating cancer” (Fuji Photo Film Co., Ltd., priority 1992, dated 1997)
# Assays:
# [1] = absorption spectrum of methanol solutions; format: physicochemical; conditions: for ε (molar absorptivity): at λmax; for λmax (MeOH): maximum absorption wavelength
# Description: Absorption spectrum of methanol solutions of the compounds used in the present invention was determined.
# [2] = test system: normal monkey kidney epithelial cell line CV-1; assay: colony formation, normal monkey kidney epithelial cell line CV-1 (24 h exposure, 7-10 days incubation); format: cell-based; conditions: Primates, CV-1 cells
# Description: (§1) CX-1 cells (2,000 cells/well) and CV-1 cells (1,000 cells/well) were plated in 24-well plastic culture plates. […] The control received culture media only. Cells were treated with compounds of General Formulas (I) to (III) at 37° C. for 24 hours. After rinsing with fresh culture medium three times, the cells were further incubated at 37° C. for 7 to 10 days. Cell colonies were fixed and stained with 2% crystal violet in 70% ethanol for 10 minutes and rinsed in water. […] The selectivity is defined as the ratio of IC50 for CV-1 and IC50 for CX-1.
# [3] = test system: human colon carcinoma cell line CX-1; assay: colony formation, human colon carcinoma cell line CX-1 (24 h exposure, 7-10 days incubation); format: cell-based; conditions: Table I; for IC50: Homo sapiens, CX-1 cells, 24 h treatment, colony number reduced to 50% of control; for Selectivity: ratio of IC50 for CV-1 and IC50 for CX-1
# Description: as §1
# KB cell = assay: colony formation, KB cell (protocol of Example 1); conditions: for IC50: Homo sapiens, KB, read-out: KB Cell (IC50); for Selectivity: Table II, ratio of IC50 for CV-1 and IC50 for KB cell
# Description: as §1
# [4] = test system: LOX, a human melanoma cell line; assay: nude mice bearing human melanoma (LOX, i.p.), survival; format: in vivo, human (LOX) in male athymic Swiss nu/nu mouse; conditions: mean survival treated / untreated control
# Description: Nude Mice Bearing Human Melanoma as a Model System
# LOX, a human melanoma cell line, grown subcutaneously in nude mice was excised, trypsinized to yield a single cell suspension using a metal grid with a […]. Red blood cells were lysed by incubation with 0.17 molar ammonium chloride at 4° C. for 20 minutes. Five million viable trypan blue negative cells made up in 0.1 ml of Dulbecco modified Eagles' medium (DME) were injected into the peritoneal cavity of a male athymic Swiss nu/nu mouse. The control group and each treatment group consisted of 5 to 10 mice. Treatment was commenced the following day by intraperitoneal injection.
# Ten control mice received 0.25 ml of 2% dextrose on those days the treated groups were injected with the compounds of this invention. The compounds used in this invention which were tested are listed in Table III below and the results obtained are also shown in Table III. T/C is the ratio, expressed as a percentage of the mean survival age of the treated group to the mean survival age of the untreated control group.
# normal nude mice = assay: toxicity to normal nude mice
# [5] = Table I, 24 h treatment, colony number reduced to 50% of control
# [6] = Table II, protocol of Example 1
Compound,ε (molar absorptivity) [1],λmax (MeOH) [1] [nm],Selectivity [3],IC50 (KB cell) [µg/mL],Selectivity (KB cell),further results
CCN1C(=O)C(=C2Sc3ccccc3N2C)SC1=Nc1sc2cc(Cl)ccc2[n+]1CC [Compound I-17],4.17 × 10^4,462,,,,
CCN1C(=O)C(=C2Sc3ccc(C)cc3N2C)SC1=Nc1sc2ccccc2[n+]1CC [Compound I-19],,,120,,,"IC50 [2, 5]: 6 µg/mL; IC50 [3]: 0.05 µg/mL"
"CCN1C(=CC(C)=Cc2sc3c4ccccc4ccc3[n+]2CC)Sc2c1ccc1ccccc21 [G, reference compound]",,,5,,,
CCN1C(=O)C(=C2Sc3ccccc3N2C)SC1=Nc1sc2cc(OC)ccc2[n+]1CC [Compound I-18],4.74 × 10^4,466,,0.15,177,"IC50 [2, 6]: 26.5 µg/mL"
CCN1CCSC1=CC=C1SC(=Nc2sc3ccccc3[n+]2CC)N(CC)C1=O [II-2],5.78 × 10^4,520,,,,
CCN1C(=O)C(=C2Sc3c(ccc4ccccc34)N2C)SC1=Nc1cccc[n+]1CC [Compound I-25],,,100,0.17,176,"IC50 [2, 5]: 10 µg/mL; IC50 [3]: 0.1 µg/mL"
CCN1C(=O)C(=C2Sc3ccc4ccccc4c3N2C)SC1=Nc1scc[n+]1C [Compound I-47],,,,0.037,686,"T/C (%) ([4]; 10 mg/kg i.p. on day 1, 3, 5): 207%; IC50 [2, 6]: 25.4 µg/mL"
"CCn1c(=Cc2sc3ccccc3[n+]2CC)sc(=C2Sc3ccccc3N2C)c1=O [Compound S-1, reference compound]",7.49 × 10^4,500,,,,
"CCN1C(=O)C(=C2Sc3ccccc3N2C)SC1=Nc1cccc[n+]1CC [Compound I-6, 1-ethyl-2-{[3-ethyl-5-(3-methylbenzothiazolin-2-ylidene)]-4-oxothiazolin-2-ylideneamino} pyridinium iodide]",3.52 × 10^4,434,,,,
"CCN1C(=CC=c2sc(=Cc3sc4c([n+]3CC)CCCC4)n(CC)c2=O)Oc2ccccc21 [Compound C, reference compound]",,,50,,,toxicity to normal nude mice (normal nude mice): less toxic to normal nude mice
CCN1C(=O)C(=C2Sc3ccccc3N2C)SC1=Nc1scc[n+]1CC [Compound I-46],,,,0.083,330,"T/C (%) ([4]; 10 mg/kg i.p. on day 1, 3, 4, 5, 6, 8): 175%; IC50 [2, 6]: 27.4 µg/mL"
"CCN1C(=CC=CC=Cc2sc3ccccc3[n+]2CC)Oc2ccccc21 [F, reference compound]",,,50,,,
CCN1C(C)=CSC1=CC=C1SC(=Nc2sc3cc(OC)ccc3[n+]2CC)N(CC)C1=O [Compound II-3],8.31 × 10^4,570,,,,
CC[n+]1c(N=C2SC(=CC=C3Sc4ccccc4N3C)C(=O)N2C)sc2ccccc21 [II-4],7.58 × 10^4,564,,0.15,196,"IC50 [2, 6]: 29.4 µg/mL"
CCN1C(=O)C(=CC=C2Sc3ccc4ccccc4c3N2CC)SC1=Nc1scc[n+]1C [II-7],,,133,0.15,200,"IC50 [2, 5]: 4 µg/mL; IC50 [3]: 0.03 µg/mL"
"CCN1C(=CC=C(Cl)C=Cc2sc3ccc4ccccc4c3[n+]2CC)Sc2ccc3ccccc3c21 [H, reference compound]",,,2.5,,,
"CCn1c(=Cc2sc3ccccc3[n+]2CC)sc(=CC=C2Sc3ccccc3N2C)c1=O [Compound S-2, reference compound]",9.44 × 10^4,593,,,,
CCN1C(=O)C(=C2Sc3ccccc3N2C)SC1=Nc1cccc[n+]1CC [Compound I-7],3.37 × 10^4,435,,,,
"CCCN1C(=CC=CC=Cc2oc3ccccc3[n+]2CCC)Oc2ccccc21 [E, reference compound]",,,12,,,
CCN1C(=O)C(=CC=C2C=Cc3ccccc3N2CC)SC1=Nc1ccc2ccccc2[n+]1C [II-9],5.80 × 10^4,582,,0.15,200,
CCN1C(=O)C(=C2Sc3ccc(OC)cc3N2C)SC1=Nc1sc2ccccc2[n+]1CC [Compound I-8],4.50 × 10^4,467,,,,
"CCN1C(=CC=Cc2sc3c4ccccc4ccc3[n+]2CC)Sc2c1ccc1ccccc21 [B, reference compound]",,,< 2,,,
CCN1C(=O)C(=C2C=CN(C)c3ccccc32)SC1=Nc1scc[n+]1CC [Compound I-54],,,,0.27,111,"T/C (%) ([4]; 6 mg/kg i.p. on day 1, 3, 4, 5, 6, 8): 169%"
CCN1C(=O)C(=C2C=Cc3ccccc3N2C)SC1=Nc1cccc[n+]1CC [Compound I-33],,,,0.39,77,
CCN1C(=O)C(=C2Sc3ccc(OC)cc3N2C)SC1=Nc1sc2ccccc2[n+]1CC [Compound I-5],4.45 × 10^4,460,,,,
CCN1C(=O)C(=C2Sc3ccccc3N2C)SC1=Nc1scc[n+]1C [Compound I-10],3.55 × 10^4,444,> 250,,,"T/C (%) ([4]; 15 mg/kg i.p. on day 1, 2, 3, 6, 8, 10): 173%; IC50 [2, 5]: > 20 µg/mL; IC50 [3]: 0.08 µg/mL"
CCN1C(=O)C(=C2Sc3ccccc3N2C)SC1=Nc1sc2ccccc2[n+]1CC [Compound I-9],4.87 × 10^4,460,,,,
CN1C(=O)C(=CC=C2Sc3ccccc3N2C)SC1=Nc1scc[n+]1C [II-24],,,,0.078,336,"IC50 [2, 6]: 26.2 µg/mL"
